Results: US10508120B2, “TYK2 inhibitors and uses thereof” (Nimbus Lakshmi, Inc., priority 2017, dated 2019)
pIC50, pKd: −log10 of the molar value.

Legend:
[1] = biological target: human TYK2 (JH2domain-pseudokinase) (Homo sapiens (Human), UniProt P29597); assay: TYK2 JH2 Domain Binding Assay (KINOMEscan)
In short: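 Competition binding of an NFkB-DBD fusion of human TYK2 JH2 (G556–D888), expressed in HEK293 and used as crude extract at <0.1 nM, against immobilized ligand beads; 1 h at room temperature in PBS/Tween/DTT/BSA buffer, 0.9% DMSO.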

[2] = biological target: JAK2/JAK2 homdimeric complex (Homo sapiens (Human), UniProt O60674); assay: GM-CSF Induced pSTAT5 in Human PBMC; type: cell-based; settings: GM-CSF 5 ng/mL for 20 minutes, pSTAT5 by MSD, read-out: PBMC_GMCSF_pSTAT5 IC50
Chain of JAK2/JAK2 homdimeric complex (O60674 whole entry, the tested form may be a part): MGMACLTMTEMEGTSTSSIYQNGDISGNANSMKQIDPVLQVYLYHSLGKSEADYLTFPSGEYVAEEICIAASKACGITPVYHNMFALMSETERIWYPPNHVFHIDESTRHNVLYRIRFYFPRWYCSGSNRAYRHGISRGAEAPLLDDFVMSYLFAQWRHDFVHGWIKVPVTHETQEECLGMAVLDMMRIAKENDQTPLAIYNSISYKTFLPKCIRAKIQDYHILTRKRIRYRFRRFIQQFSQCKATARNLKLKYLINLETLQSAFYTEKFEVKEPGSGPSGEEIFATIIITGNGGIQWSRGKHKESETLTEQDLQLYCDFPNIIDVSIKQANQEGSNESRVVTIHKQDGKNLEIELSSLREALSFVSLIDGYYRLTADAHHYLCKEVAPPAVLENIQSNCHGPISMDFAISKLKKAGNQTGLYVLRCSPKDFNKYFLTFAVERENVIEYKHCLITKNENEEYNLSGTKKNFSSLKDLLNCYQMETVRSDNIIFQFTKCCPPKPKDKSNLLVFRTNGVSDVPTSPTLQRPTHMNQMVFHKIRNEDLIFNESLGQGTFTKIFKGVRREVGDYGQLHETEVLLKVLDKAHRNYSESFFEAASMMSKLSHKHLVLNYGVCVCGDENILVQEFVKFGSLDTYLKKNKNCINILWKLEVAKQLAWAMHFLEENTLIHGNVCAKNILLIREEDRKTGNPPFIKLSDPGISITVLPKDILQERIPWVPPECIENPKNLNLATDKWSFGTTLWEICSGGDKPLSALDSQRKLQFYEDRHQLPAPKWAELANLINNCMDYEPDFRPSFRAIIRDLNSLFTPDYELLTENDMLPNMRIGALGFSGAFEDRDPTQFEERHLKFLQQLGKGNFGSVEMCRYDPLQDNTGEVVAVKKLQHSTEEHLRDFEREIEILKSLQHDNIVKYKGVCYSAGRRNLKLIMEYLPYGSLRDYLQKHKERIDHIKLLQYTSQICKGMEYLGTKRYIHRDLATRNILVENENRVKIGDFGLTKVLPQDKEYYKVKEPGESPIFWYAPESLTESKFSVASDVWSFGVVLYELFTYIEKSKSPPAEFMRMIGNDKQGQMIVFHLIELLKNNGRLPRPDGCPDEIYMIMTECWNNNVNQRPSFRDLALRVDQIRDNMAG
Chain of JAK2/JAK2 homdimeric complex (P32927 17-897 partner): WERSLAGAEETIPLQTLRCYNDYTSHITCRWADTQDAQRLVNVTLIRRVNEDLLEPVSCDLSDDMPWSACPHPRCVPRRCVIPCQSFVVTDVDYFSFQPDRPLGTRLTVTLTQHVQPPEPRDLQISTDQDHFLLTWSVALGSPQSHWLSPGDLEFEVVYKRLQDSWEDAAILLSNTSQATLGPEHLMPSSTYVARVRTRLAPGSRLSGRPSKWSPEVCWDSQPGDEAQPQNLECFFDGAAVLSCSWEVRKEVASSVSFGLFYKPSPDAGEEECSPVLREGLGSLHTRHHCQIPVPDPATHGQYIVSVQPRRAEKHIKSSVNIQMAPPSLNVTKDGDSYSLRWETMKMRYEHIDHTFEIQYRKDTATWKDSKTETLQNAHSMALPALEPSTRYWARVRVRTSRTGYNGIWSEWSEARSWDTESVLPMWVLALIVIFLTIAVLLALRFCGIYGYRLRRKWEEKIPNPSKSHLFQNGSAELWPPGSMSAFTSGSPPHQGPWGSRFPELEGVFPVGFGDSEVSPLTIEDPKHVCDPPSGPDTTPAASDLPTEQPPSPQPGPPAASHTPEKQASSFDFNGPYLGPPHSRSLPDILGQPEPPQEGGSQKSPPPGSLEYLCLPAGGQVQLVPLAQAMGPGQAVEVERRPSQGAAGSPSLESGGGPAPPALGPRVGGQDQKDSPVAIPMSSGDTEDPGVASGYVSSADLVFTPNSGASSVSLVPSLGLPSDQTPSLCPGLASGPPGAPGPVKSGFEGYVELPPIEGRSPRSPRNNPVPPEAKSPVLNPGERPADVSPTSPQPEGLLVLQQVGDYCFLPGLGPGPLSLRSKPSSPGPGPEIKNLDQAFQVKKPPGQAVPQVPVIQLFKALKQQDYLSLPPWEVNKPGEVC

JAK2 kinase domain (JH1) = JAK2 kinase domain (JH1) (Homo sapiens (Human), UniProt O60674); assay: JAK2 Radioactive Kinase Assay; type: biochemical; settings: compound at 10 μM; ATP 10 μM; read-out: JAK2 JH1% Inhibition @ 10 μM
Chain of JAK2 kinase domain (JH1) (O60674 849-1124): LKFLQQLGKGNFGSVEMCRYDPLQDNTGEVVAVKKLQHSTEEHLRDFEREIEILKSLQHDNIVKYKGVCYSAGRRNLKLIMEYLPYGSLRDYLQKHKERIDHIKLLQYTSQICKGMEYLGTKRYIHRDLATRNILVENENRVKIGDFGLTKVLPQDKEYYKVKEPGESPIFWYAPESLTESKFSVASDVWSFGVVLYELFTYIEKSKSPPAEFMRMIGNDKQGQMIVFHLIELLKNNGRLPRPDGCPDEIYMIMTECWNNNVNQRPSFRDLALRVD
In short: (§1)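 Values are single-concentration percent inhibition figures. They were obtained with 10 μM compound in a radioactivity-based kinase assay run separately on each enzyme.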

[3] = biological target: Tyk2/JAK2 (heterodimeric complex) (Homo sapiens (Human), UniProt P29597); assay: IL-12 Induced pSTAT4 in Human PBMC; type: cell-based; settings: 1.7 ng/mL IL-12
Chain of Tyk2/JAK2 (heterodimeric complex) (P29597 whole entry, other chains not shown): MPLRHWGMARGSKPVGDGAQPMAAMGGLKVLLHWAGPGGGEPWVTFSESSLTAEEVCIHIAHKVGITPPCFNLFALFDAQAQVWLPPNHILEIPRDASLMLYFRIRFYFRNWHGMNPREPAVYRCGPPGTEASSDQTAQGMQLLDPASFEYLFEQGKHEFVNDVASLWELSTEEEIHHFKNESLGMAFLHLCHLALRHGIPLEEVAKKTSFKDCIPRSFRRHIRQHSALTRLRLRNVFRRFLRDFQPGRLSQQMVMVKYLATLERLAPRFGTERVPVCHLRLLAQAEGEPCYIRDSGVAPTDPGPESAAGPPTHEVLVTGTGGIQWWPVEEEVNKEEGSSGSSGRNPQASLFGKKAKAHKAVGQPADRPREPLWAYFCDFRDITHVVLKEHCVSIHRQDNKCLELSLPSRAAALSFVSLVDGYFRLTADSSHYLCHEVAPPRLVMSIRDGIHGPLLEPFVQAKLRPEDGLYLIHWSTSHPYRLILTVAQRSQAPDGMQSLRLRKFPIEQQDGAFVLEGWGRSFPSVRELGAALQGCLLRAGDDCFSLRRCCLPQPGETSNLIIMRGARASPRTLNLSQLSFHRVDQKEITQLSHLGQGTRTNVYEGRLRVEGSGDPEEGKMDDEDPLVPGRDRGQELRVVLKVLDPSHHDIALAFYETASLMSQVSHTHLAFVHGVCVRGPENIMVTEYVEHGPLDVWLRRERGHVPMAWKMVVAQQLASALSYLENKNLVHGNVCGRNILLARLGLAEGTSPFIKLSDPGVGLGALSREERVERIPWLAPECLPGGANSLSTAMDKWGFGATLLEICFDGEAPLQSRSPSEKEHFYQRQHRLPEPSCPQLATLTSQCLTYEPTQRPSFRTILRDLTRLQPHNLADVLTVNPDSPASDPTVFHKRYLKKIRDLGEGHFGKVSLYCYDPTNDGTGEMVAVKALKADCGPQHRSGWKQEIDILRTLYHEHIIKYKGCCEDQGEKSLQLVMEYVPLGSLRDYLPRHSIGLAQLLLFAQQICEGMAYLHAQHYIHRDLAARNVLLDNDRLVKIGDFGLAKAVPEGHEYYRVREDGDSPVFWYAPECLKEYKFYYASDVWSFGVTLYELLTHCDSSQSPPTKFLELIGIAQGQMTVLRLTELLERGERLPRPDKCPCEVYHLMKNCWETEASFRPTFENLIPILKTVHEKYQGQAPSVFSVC
From the text: The IL-12 Induced pSTAT4 assay evaluates the inhibition of IL-12 induced STAT4 phophorylation mediated by Tyk2/JAK2 (heterodimeric complex).

Tyk2 kinase domain (DH1) = Tyk2 kinase domain (DH1) (Homo sapiens (Human), UniProt P29597); assay: Tyk2 Radioactive Kinase Assay; type: biochemical; settings: compound at 10 μM; ATP 10 μM; read-out: Tyk2 JH1% Inhibition @ 10 μM
Chain of Tyk2 kinase domain (DH1) (P29597 897-1176): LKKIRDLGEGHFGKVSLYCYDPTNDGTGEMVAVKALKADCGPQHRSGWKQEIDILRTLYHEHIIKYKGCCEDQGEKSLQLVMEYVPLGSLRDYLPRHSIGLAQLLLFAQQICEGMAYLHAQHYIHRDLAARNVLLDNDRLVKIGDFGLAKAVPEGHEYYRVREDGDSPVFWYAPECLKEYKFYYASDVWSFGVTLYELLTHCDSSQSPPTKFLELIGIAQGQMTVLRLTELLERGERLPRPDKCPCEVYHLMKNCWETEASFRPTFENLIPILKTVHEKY
In short: as §1

Chain of human TYK2 (JH2domain-pseudokinase) (P29597 556-888): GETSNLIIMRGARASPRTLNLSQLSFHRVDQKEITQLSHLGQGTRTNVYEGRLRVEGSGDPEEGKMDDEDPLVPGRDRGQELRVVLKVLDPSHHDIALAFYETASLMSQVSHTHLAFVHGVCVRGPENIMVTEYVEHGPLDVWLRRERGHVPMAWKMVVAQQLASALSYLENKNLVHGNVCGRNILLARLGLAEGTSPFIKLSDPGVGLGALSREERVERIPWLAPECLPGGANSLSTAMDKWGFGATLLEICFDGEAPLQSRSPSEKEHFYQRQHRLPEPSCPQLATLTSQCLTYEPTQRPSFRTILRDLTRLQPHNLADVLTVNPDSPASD

Structure (SMILES)	pKd [1]	pIC50 [2]	inhibition at 10 µM (JAK2 kinase domain (JH1)) [%]	pIC50 [3]	inhibition at 10 µM (Tyk2 kinase domain (DH1)) [%]
CNc1cc(Nc2cccn([C@H]3CC[C@H](OC)CC3)c2=O)nc2c(C(=O)NC3CCC3)cnn12 [I-345]	> 9.70	< 4.30	< 50	> 7.00	< 50
CNc1cc(Nc2cccnc2OC)nc2c(C(=O)NCC(C)(C)CO)cnn12 [I-346]	> 9.70	< 5.60	< 50	> 7.00	< 50
[2H]C([2H])([2H])Oc1ncccc1Nc1cc(NC)n2ncc(C(=O)NCC(C)(C)CO)c2n1 [I-347]	> 9.70	< 4.30	< 50	> 7.00	< 50
CNc1cc(Nc2cccnc2OC2CC2)nc2c(C(=O)NCC(C)(C)CO)cnn12 [I-350]	> 9.70	< 4.30	< 50	> 7.00	< 50
CNc1cc(Nc2cccn([C@H]3CCCOC3)c2=O)nc2c(C(=O)NC3CC3)cnn12 [I-352]	> 9.70	< 4.30	< 50	> 7.00	< 50
CNc1cc(Nc2cccn([C@H]3CCCOC3)c2=O)nc2c(C(=O)NC3CCC3)cnn12 [I-354]	> 9.70	< 5.60	< 50	> 7.00	< 50
CNc1cc(Nc2cccn([C@H]3CC[C@@](C)(OC)CC3)c2=O)nc2c(C(=O)NC3CC3)cnn12 [I-359]	> 9.70	< 4.90	< 50	6.30 to 7.00	< 50
CNc1cc(Nc2cccn([C@H]3CC[C@@](C)(OC)CC3)c2=O)nc2c(C(=O)N[C@H]3C[C@H]3F)cnn12 [I-360]	> 9.70	< 4.30	< 50	> 7.00	< 50
CNc1cc(Nc2cccn([C@H]3CC[C@](C)(OC)CC3)c2=O)nc2c(C(=O)N[C@H]3C[C@H]3F)cnn12 [I-362]	> 9.70	< 4.30	< 50	> 7.00	< 50
[2H]C([2H])([2H])Oc1ncccc1Nc1cc(NC)n2ncc(C(=O)N[C@H]3CC[C@@H]3O)c2n1 [I-373]	> 9.70	< 4.30	< 50	> 7.00	< 50

Further lines, results first:

pKd [1]	pIC50 [2]	inhibition at 10 µM (JAK2 kinase domain (JH1)) [%]	pIC50 [3]	inhibition at 10 µM (Tyk2 kinase domain (DH1)) [%]	Structure (SMILES)
> 9.70	< 4.90	< 50	> 7.00	< 50	CNc1cc(Nc2cccn([C@H]3CC[C@H](OC)CC3)c2=O)nc2c(C(=O)N[C@H]3C[C@H]3F)cnn12 [I-344]
> 9.70	< 5.60	< 50	> 7.00	< 50	CNc1cc(Nc2cccn([C@H]3CC[C@@H](OC)CC3)c2=O)nc2c(C(=O)N[C@H]3C[C@H]3F)cnn12 [I-357]
> 9.70	< 4.30	< 50	> 7.00	< 50	CNc1cc(Nc2cccn(CC3CCCCO3)c2=O)nc2c(C(=O)N[C@H]3C[C@H]3F)cnn12 (stereo partly shown) [I-365]
> 9.70	< 4.90	< 50	> 7.00	< 50	CNc1cc(Nc2cccn(-c3nc(C)co3)c2=O)nc2c(C(=O)NC3CC3)cnn12 [I-368]
> 9.70	< 4.30	< 50	> 7.00	< 50	CNc1cc(Nc2cccn(-c3nc(C)co3)c2=O)nc2c(C(=O)N[C@H]3C[C@H]3F)cnn12 [I-369]
> 9.70	< 4.90	< 50	> 7.00	< 50	CNc1cc(Nc2cc(F)cn(-c3ccn(C)n3)c2=O)nc2c(C(=O)NC3CC3)cnn12 [I-378]
> 9.70	< 5.60	< 50	> 7.00	< 50	CNc1cc(Nc2cc(F)cn(-c3ccn(C)n3)c2=O)nc2c(C(=O)N[C@H]3C[C@H]3F)cnn12 [I-379]
